Experiments:
Assay in all cases: cells
[1] = system: HuO-3N1; type: functional, cell-based, Homo sapiens; settings: Homo sapiens, HuO-3N1;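 note: cell viability readout used to measure how strongly compounds suppress proliferation of human HuO-3N1 cells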
Description: SANGER: Inhibition of human HuO-3N1 cell growth in a cell viability assay.

[2] = system: SW756; type: functional, cell-based, Homo sapiens; settings: Homo sapiens, SW756;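 note: growth inhibition of human SW756 cells, read out with a cell viability assay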
Description: SANGER: Inhibition of human SW756 cell growth in a cell viability assay.

[3] = system: KYSE-410; type: functional, cell-based, Homo sapiens; settings: Homo sapiens, KYSE-410;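 note: growth inhibition of KYSE-410 cells, measured through a cell viability readout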
Description: SANGER: Inhibition of human KYSE-410 cell growth in a cell viability assay.

[4] = system: MFM-223; type: functional, cell-based, Homo sapiens; settings: Homo sapiens, MFM-223
Description: SANGER: Inhibition of human MFM-223 cell growth in a cell viability assay.

[5] = system: HAL-01; type: functional, cell-based; settings: Homo sapiens;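 note: growth inhibition of human HAL-01 cells, read out with a cell viability assay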
Description: SANGER: Inhibition of human HAL-01 cell growth in a cell viability assay.

[6] = system: MCF7; type: functional, cell-based, Homo sapiens; settings: Homo sapiens, MCF7;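 note: growth inhibition of human MCF7 cells, read out with a cell viability assay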
Description: SANGER: Inhibition of human MCF7 cell growth in a cell viability assay.

[7] = system: EC-GI-10; type: functional, cell-based, Homo sapiens; settings: Homo sapiens, EC-GI-10
Description: SANGER: Inhibition of human EC-GI-10 cell growth in a cell viability assay.

[8] = system: SK-N-DZ; type: functional, cell-based, Homo sapiens; settings: Homo sapiens, SK-N-DZ;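 note: growth inhibition of the cancer cell line, read out through a viability assay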
Description: SANGER: Inhibition of human SK-N-DZ cell growth in a cell viability assay.

[9] = system: NCI-H1651; type: functional, cell-based, Homo sapiens; settings: Homo sapiens, NCI-H1651;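 note: Read-out is a cell viability assay, with IC50 expressing inhibition of NCI-H1651 cell growth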
Description: SANGER: Inhibition of human NCI-H1651 cell growth in a cell viability assay.

[10] = system: NCI-H1792; type: functional, cell-based, Homo sapiens; settings: Homo sapiens, NCI-H1792;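 note: growth inhibition of human NCI-H1792 cells, read out as cell viability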
Description: SANGER: Inhibition of human NCI-H1792 cell growth in a cell viability assay.

[11] = system: EW-18; type: functional, cell-based; settings: Homo sapiens;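 note: growth inhibition of EW-18 cells, read out by a cell viability assay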
Description: SANGER: Inhibition of human EW-18 cell growth in a cell viability assay.

[12] = system: GMS-10; type: functional, cell-based, Homo sapiens; settings: Homo sapiens, GMS-10;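 note: growth inhibition of GMS-10 cells, read out as cell viability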
Description: SANGER: Inhibition of human GMS-10 cell growth in a cell viability assay.

[13] = system: NCI-H82; type: functional, cell-based; settings: Homo sapiens;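 note: growth inhibition of NCI-H82 cells, measured with a cell viability readout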
Description: SANGER: Inhibition of human NCI-H82 cell growth in a cell viability assay.

[14] = system: TE-12; type: functional, cell-based; settings: Homo sapiens;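 note: growth inhibition of TE-12 cells, read out by a cell viability assay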
Description: SANGER: Inhibition of human TE-12 cell growth in a cell viability assay.

[15] = system: TE-1; type: functional, cell-based, Homo sapiens; settings: Homo sapiens, TE-1;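 note: growth inhibition of the human TE-1 cell line, read out with a cell viability assay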
Description: SANGER: Inhibition of human TE-1 cell growth in a cell viability assay.

[16] = system: DSH1; type: functional, cell-based, Homo sapiens; settings: Homo sapiens, DSH1;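 note: growth inhibition of human DSH1 cells, measured with a cell viability readout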
Description: SANGER: Inhibition of human DSH1 cell growth in a cell viability assay.

[17] = system: NCI-H1648; type: functional, cell-based, Homo sapiens; settings: Homo sapiens, NCI-H1648;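 note: cell viability assay measuring inhibition of NCI-H1648 cell growth, from the Sanger screening data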
Description: SANGER: Inhibition of human NCI-H1648 cell growth in a cell viability assay.

[18] = system: A673; type: functional, cell-based, Homo sapiens; settings: Homo sapiens, A673;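 note: growth inhibition of human A673 cells, read out through a cell viability assay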
Description: SANGER: Inhibition of human A673 cell growth in a cell viability assay.

[19] = system: BCPAP; type: functional, cell-based, Homo sapiens; settings: Homo sapiens, BCPAP;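 note: growth inhibition of BCPAP cells, read out in a cell viability assay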
Description: SANGER: Inhibition of human BCPAP cell growth in a cell viability assay.

[20] = system: ES3; type: functional, cell-based, Homo sapiens; settings: Homo sapiens, ES3;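 note: growth inhibition of ES3 cells, read out with a cell viability assay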
Description: SANGER: Inhibition of human ES3 cell growth in a cell viability assay.

[21] = system: ASPC1; type: functional, cell-based, Homo sapiens; settings: Homo sapiens, ASPC1;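 note: growth inhibition of AsPC-1 cells, read out with a cell viability assay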
Description: SANGER: Inhibition of human AsPC-1 cell growth in a cell viability assay.

[22] = system: HEL; type: functional, cell-based, Homo sapiens; settings: Homo sapiens, HEL;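 note: growth inhibition of HEL cells, read out with a cell viability assay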
Description: SANGER: Inhibition of human HEL cell growth in a cell viability assay.

[23] = system: A498; type: functional, cell-based, Homo sapiens; settings: Homo sapiens, A498;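 note: growth inhibition of human A498 cells, read out with a cell viability assay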
Description: SANGER: Inhibition of human A498 cell growth in a cell viability assay.

[24] = system: MOLT-4; type: functional, cell-based; settings: Homo sapiens;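 note: growth inhibition of MOLT-4 cells, determined with a cell viability readout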
Description: SANGER: Inhibition of human MOLT-4 cell growth in a cell viability assay.

[25] = system: MHH-PREB-1; type: functional, cell-based; settings: Homo sapiens;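 note: cell viability assay measuring inhibition of proliferation of human MHH-PREB-1 cells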
Description: SANGER: Inhibition of human MHH-PREB-1 cell growth in a cell viability assay.

[26] = system: LCLC-97TM1; type: functional, cell-based, Homo sapiens; settings: Homo sapiens, LCLC-97TM1;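 note: cell viability assay measuring growth inhibition of human LCLC-97TM1 cells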
Description: SANGER: Inhibition of human LCLC-97TM1 cell growth in a cell viability assay.

[27] = system: GP5d; type: functional, cell-based, Homo sapiens; settings: Homo sapiens, GP5d;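 note: growth inhibition of human GP5d cells, read out with a cell viability assay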
Description: SANGER: Inhibition of human GP5d cell growth in a cell viability assay.

[28] = system: MDA-MB-175-VII; type: functional, cell-based, Homo sapiens; settings: Homo sapiens, MDA-MB-175-VII
[29] = system: ONS-76; type: functional, cell-based, Homo sapiens; settings: Homo sapiens, ONS-76;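 note: growth inhibition of human ONS-76 cells, read out with a cell viability assay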
Description: SANGER: Inhibition of human ONS-76 cell growth in a cell viability assay.

[30] = system: 697; type: functional, cell-based; settings: Homo sapiens
Description: SANGER: Inhibition of human 697 cell growth in a cell viability assay.

[31] = system: MZ7-mel; type: functional, cell-based, Homo sapiens; settings: Homo sapiens, MZ7-mel;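 note: growth inhibition of human MZ7-mel cells, measured by a cell viability assay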
Description: SANGER: Inhibition of human MZ7-mel cell growth in a cell viability assay.

[32] = system: BHY; type: functional, cell-based, Homo sapiens; settings: Homo sapiens, BHY;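 note: cell growth inhibition read out by a viability assay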
Description: SANGER: Inhibition of human BHY cell growth in a cell viability assay.

[33] = system: HDLM-2; type: functional, cell-based; settings: Homo sapiens;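 note: cell viability assay measuring suppression of HDLM-2 proliferation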
Description: SANGER: Inhibition of human HDLM-2 cell growth in a cell viability assay.

[34] = system: HCC1806; type: functional, cell-based, Homo sapiens; settings: Homo sapiens, HCC1806;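 note: growth inhibition of the cancer cell line, determined with a cell viability assay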
Description: SANGER: Inhibition of human HCC1806 cell growth in a cell viability assay.

[35] = system: GOTO; type: functional, cell-based, Homo sapiens; settings: Homo sapiens, GOTO;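 note: growth inhibition of GOTO cells, read out by a cell viability assay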
Description: SANGER: Inhibition of human GOTO cell growth in a cell viability assay.

[36] = system: NMC-G1; type: functional, cell-based, Homo sapiens; settings: Homo sapiens, NMC-G1;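 note: growth inhibition of the NMC-G1 cell line, measured with a cell viability read-out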
Description: SANGER: Inhibition of human NMC-G1 cell growth in a cell viability assay.

[37] = system: CAL-39; type: functional, cell-based, Homo sapiens; settings: Homo sapiens, CAL-39;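 note: cell viability assay measuring growth inhibition of CAL-39 cells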
Description: SANGER: Inhibition of human CAL-39 cell growth in a cell viability assay.

[38] = system: H4; type: functional, cell-based; settings: Homo sapiens
Description: SANGER: Inhibition of human H4 cell growth in a cell viability assay.

[39] = system: SK-MEL3; type: functional, cell-based, Homo sapiens, SK-MEL-3; settings: Homo sapiens, SK-MEL3;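 note: growth inhibition of human SK-MEL-3 cells, read out with a cell viability assay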
Description: SANGER: Inhibition of human SK-MEL-3 cell growth in a cell viability assay.

[40] = system: KYSE-450; type: functional, cell-based; settings: Homo sapiens;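 note: cell growth inhibition measured by a viability assay in human KYSE-450 cells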
Description: SANGER: Inhibition of human KYSE-450 cell growth in a cell viability assay.

[41] = system: NCI-H1437; type: functional, cell-based, Homo sapiens; settings: Homo sapiens, NCI-H1437;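 note: growth inhibition of human NCI-H1437 cells, read out by a cell viability assay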
Description: SANGER: Inhibition of human NCI-H1437 cell growth in a cell viability assay.

[42] = system: CAL-54; type: functional, cell-based, Homo sapiens; settings: Homo sapiens, CAL-54;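 note: growth inhibition of CAL-54 cells, read out by a viability measurement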
Description: SANGER: Inhibition of human CAL-54 cell growth in a cell viability assay.

[43] = system: M059J; type: functional, cell-based, Homo sapiens; settings: Homo sapiens, M059J;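 note: growth inhibition of M059J cells, read out with a cell viability assay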
Description: SANGER: Inhibition of human M059J cell growth in a cell viability assay.

[44] = system: GI-ME-N; type: functional, cell-based, Homo sapiens; settings: Homo sapiens, GI-ME-N;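 note: growth inhibition of human GI-ME-N cells, read out with a cell viability assay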
Description: SANGER: Inhibition of human GI-ME-N cell growth in a cell viability assay.

[45] = system: SK-MEL-2; type: functional, cell-based, Homo sapiens; settings: Homo sapiens, SK-MEL-2;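 note: growth inhibition of human SK-MEL-2 cells measured with a cell viability assay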
Description: SANGER: Inhibition of human SK-MEL-2 cell growth in a cell viability assay.

[46] = system: COLO-800; type: functional, cell-based, Homo sapiens; settings: Homo sapiens, COLO-800;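 note: growth inhibition of COLO-800 cells, read out with a cell viability assay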
Description: SANGER: Inhibition of human COLO-800 cell growth in a cell viability assay.

[47] = system: Ca-Ski; type: functional, cell-based; settings: Homo sapiens;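 note: cell viability assay measuring inhibition of Ca-Ski cell growth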
Description: SANGER: Inhibition of human Ca-Ski cell growth in a cell viability assay.

[48] = system: CAL-33; type: functional, cell-based, Homo sapiens; settings: Homo sapiens, CAL-33;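 note: growth inhibition of CAL-33 cells, read out with a cell viability assay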
Description: SANGER: Inhibition of human CAL-33 cell growth in a cell viability assay.

[49] = system: NB5; type: functional, cell-based, Homo sapiens; settings: Homo sapiens, NB5;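 note: growth inhibition of NB5 cells, read out as cell viability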
Description: SANGER: Inhibition of human NB5 cell growth in a cell viability assay.

[50] = system: NCI-H1155; type: functional, cell-based; settings: Homo sapiens;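 note: cell growth inhibition measured by a viability assay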
Description: SANGER: Inhibition of human NCI-H1155 cell growth in a cell viability assay.

[51] = system: CCRF-CEM; type: functional, cell-based; settings: Homo sapiens;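 note: inhibition of CCRF-CEM cell growth, measured by a cell viability assay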
Description: SANGER: Inhibition of human CCRF-CEM cell growth in a cell viability assay.

[52] = system: VMRC-RCZ; type: functional, cell-based; settings: Homo sapiens;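 note: growth inhibition measured with a cell viability assay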
Description: SANGER: Inhibition of human VMRC-RCZ cell growth in a cell viability assay.

CN(c1ncccc1CNc1nc(Nc2ccc3c(c2)CC(=O)N3)ncc1C(F)(F)F)S(C)(=O)=O [PF-00562271]
IC50 [1]: > 2560 nM | IC50 [2]: > 2560 nM | IC50 [3]: > 2560 nM | IC50 [4]: > 2560 nM | IC50 [5]: > 2560 nM | IC50 [6]: > 2560 nM | IC50 [7]: > 2560 nM | IC50 [8]: > 2560 nM | IC50 [9]: > 2560 nM | IC50 [10]: > 2560 nM | IC50 [11]: > 2560 nM | IC50 [12]: > 2560 nM | IC50 [13]: > 2560 nM | IC50 [14]: > 2560 nM | IC50 [15]: > 2560 nM | IC50 [16]: > 2560 nM | IC50 [17]: > 2560 nM | IC50 [18]: > 2560 nM | IC50 [19]: 1010 nM | IC50 [20]: > 2560 nM | IC50 [21]: > 2560 nM | IC50 [22]: > 2560 nM | IC50 [23]: > 2560 nM | IC50 [24]: > 2560 nM | IC50 [25]: > 2560 nM | IC50 [26]: > 2560 nM | IC50 [27]: > 2560 nM | IC50 [28]: > 2560 nM | IC50 [29]: > 2560 nM | IC50 [30]: > 2560 nM | IC50 [31]: > 2560 nM | IC50 [32]: 1660 nM | IC50 [33]: > 2560 nM | IC50 [34]: > 2560 nM | IC50 [35]: > 2560 nM | IC50 [36]: > 2560 nM | IC50 [37]: 2420 nM | IC50 [38]: > 2560 nM | IC50 [39]: > 2560 nM | IC50 [40]: > 2560 nM | IC50 [41]: > 2560 nM | IC50 [42]: > 2560 nM | IC50 [43]: > 2560 nM | IC50 [44]: > 2560 nM | IC50 [45]: > 2560 nM | IC50 [46]: > 2560 nM | IC50 [47]: > 2560 nM | IC50 [48]: 1130 nM | IC50 [49]: > 2560 nM | IC50 [50]: > 2560 nM | IC50 [51]: > 2560 nM | IC50 [52]: > 2560 nM

Source: ChEMBL document CHEMBL1201861, “Genomics of Drug Sensitity in Cancer screening data, Wellcome Trust Sanger Institute”
